Source: patent publication US20240254138A1, “TRICYCLIC PYRIMIDINES AS CYCLIN-DEPENDENT KINASE 7 (CDK7) INHIBITORS” (JANSSEN PHARMACEUTICA NV, priority 2021, published 2024)
Like-named read-outs stand apart in the source and are kept apart here.

What was measured:
[1] = test system: RNA Polymerase II Serine 5 phosphorylation in A549 cells overexpressing CDK7-mutant (C312S); assay: Imaging-based cellular RNA PolII Ser5 phosphorylation assay in A549 cells overexpressing CDK7-mutant (C312S); assay type: cell-based, human; conditions: RNA PolII Ser5 phosphorylation, averaged over all measurements; for IC50: Homo sapiens, A549, A549 cells overexpressing CDK7-mutant (C312S), read-out: CDK7_A549 mutant hCDK7(pIC50) (converted); for CDK7_A549 mutant hCDK7(pIC50): A549 cells overexpressing CDK7-mutant (C312S)
Procedure, shortened: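 A549 cells overexpressing CDK7 C312S (with endogenous wild-type CDK7) were treated with compound for 3 h at 37 °C in 1% FBS medium. Phospho-Rpb1 CTD Ser5 was immunostained after fixation and imaged. IC50 came from curve fit of % control, normalised to DMSO and 10 μM reference-compound controls.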

[2] = test system: RNA Polymerase II Serine 5 phosphorylation (Rpb1 CTD, downstream substrate of CDK7) in A549 cells; assay: Imaging-based cellular RNA PolII Ser5 phosphorylation assay in A549 cells; assay type: cell-based, human; conditions: wild-type CDK7, RNA PolII Ser5 phosphorylation, averaged over all measurements; for IC50: Homo sapiens, A549, A549 cells, read-out: CDK7_A549 Wild-type CDK7 (pIC50) (converted); for CDK7_A549 Wild-type CDK7 (pIC50): A549 cells
Procedure, shortened: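 A549 cells, seeded 1000/well in DMEM with 1% FBS and cultured 20 h, were treated with compound for 3 h at 37 °C. Ser5-phospho-Rpb1 CTD detected by immunofluorescence imaging after fixation and methanol permeabilization; IC50 from curve fit normalized to DMSO and 10 μM reference-compound controls.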

[3] = biological target: CDK7/cyclinH/MAT1 trimeric complex (Homo sapiens, UniProt P50613); assay: In vitro CDK7 assay, potency of irreversible covalent inhibitors (kinact/KI), coupled PK/LDH ADP readout at 340 nm
[4] = CDK7 (20 nM enz.) (KI, μM), 20 nM enzyme
[5] = read-out: CDK7 (20 nM enz.) (kinact, s^−1), 20 nM enzyme
[6] = read-out: CDK7 (20 nM enz.) (kinact/KI, M^−1*s^−1), 20 nM enzyme
[7] = read-out: CDK7 (20 nM enz.) (kobs/[I], M^−1*s^−1), 20 nM enzyme

CDK7/cyclinH/MAT1 trimeric complex, sequence (P50613 whole entry): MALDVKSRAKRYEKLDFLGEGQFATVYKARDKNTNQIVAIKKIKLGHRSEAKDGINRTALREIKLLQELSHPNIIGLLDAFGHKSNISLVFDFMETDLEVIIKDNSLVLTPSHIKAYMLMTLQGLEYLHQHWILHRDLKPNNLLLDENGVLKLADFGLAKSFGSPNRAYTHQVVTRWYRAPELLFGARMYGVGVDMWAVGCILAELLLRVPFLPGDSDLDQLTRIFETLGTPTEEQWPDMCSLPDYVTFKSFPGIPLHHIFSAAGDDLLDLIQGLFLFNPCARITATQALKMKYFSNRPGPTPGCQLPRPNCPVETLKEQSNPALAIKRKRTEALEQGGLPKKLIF
CDK7/cyclinH/MAT1 trimeric complex, sequence (P51946 whole entry partner): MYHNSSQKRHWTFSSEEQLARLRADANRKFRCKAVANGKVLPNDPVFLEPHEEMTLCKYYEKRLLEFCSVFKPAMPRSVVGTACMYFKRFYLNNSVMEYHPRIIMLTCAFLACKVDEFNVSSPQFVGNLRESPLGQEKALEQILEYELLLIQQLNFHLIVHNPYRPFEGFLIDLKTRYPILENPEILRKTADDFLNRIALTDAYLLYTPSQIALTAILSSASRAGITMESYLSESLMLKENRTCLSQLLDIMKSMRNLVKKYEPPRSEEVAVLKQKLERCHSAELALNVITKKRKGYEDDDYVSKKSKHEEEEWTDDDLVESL
CDK7/cyclinH/MAT1 trimeric complex, sequence (P51948 whole entry partner): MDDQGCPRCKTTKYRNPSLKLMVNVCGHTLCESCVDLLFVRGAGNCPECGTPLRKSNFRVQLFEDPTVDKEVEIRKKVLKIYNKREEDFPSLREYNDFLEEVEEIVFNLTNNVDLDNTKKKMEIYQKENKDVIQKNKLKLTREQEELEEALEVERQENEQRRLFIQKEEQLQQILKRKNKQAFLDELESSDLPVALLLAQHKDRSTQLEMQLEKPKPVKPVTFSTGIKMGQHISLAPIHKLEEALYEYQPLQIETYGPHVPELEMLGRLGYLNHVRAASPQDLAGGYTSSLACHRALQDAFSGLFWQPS

SMILES	IC50 [1] [nM]	IC50 [2] [nM]	Ki [3, 4] [µM]	kinact [3, 5] [s⁻¹]	kinact/KI [3, 6] [M⁻¹ s⁻¹]	kinact/KI [3, 7] [M⁻¹ s⁻¹]	also measured
CC#CC(=O)N1CC(N2CCC(c3cc4c(c(C)n3)O[C@H](C)c3c(-c5cnn(C)c5)ccnc3N4)CC2)C1 (single isomer, unassigned) [Compound 541]	> 10000	155	0.0182	4.94e-05	2710	–	–
C=CC(=O)N1CC(N2CCC(c3cc4c(c(C#N)n3)OCc3c(C5CCOCC5)ccnc3N4)CC2)C1 [Compound 322]	9550	79.4	–	–	–	740	–
CC#CC(=O)N1CC[C@H](N2CC(c3cc4c(c(C5CC5)n3)O[C@@H](C)c3c(N5CCOCC5)ccnc3N4)C2)C1 (single isomer, unassigned) [Compound 470]	> 10000	251	0.0394	3e-05	761	–	–
C=CC(=O)N1CC(N2CCCN(C)[C@H](c3cc(C)c4c(c3)Nc3nccc(C5CCOCC5)c3CO4)C2)C1 (single isomer, unassigned) [Compound 255]	> 10000	3020	10.7	3.55e-05	3.33	–	–
C=CC(=O)N1CC[C@H](N2CC(c3cc4c(c(C(F)(F)F)c3)OCc3c(N5CCOCC5)ccnc3N4)C2)C1 (single isomer, unassigned) [Compound 238]	3310	40.7	–	–	–	758	–
C=CC(=O)N1CC(N2CC[C@@H](c3cc4c(c(C)n3)O[C@H](C)c3c(N5CCOCC5)ccnc3N4)C2)C1 (single isomer, unassigned) [Compound 319]	> 10000	77.6	0.047	6.15e-05	1310	–	–
COC(=O)/C=C/C(=O)N1CC[C@H](N2CCC(c3cc4c(c(C)n3)OCc3c(-c5cnn(C)c5)ccnc3N4)CC2)C1 (single isomer, unassigned) [Compound 297]	> 10000	~23.4	–	–	–	1240	–
C#Cc1cc2c(cc1C1CCN(C3CN(C(=O)C=C)C3)CC1)Nc1nccc(C3CCOCC3)c1CO2 [Compound 120]	> 10000	331	0.0783	8.13e-05	1040	–	–
C=CC(=O)N1CC(N2CCCC(c3ccc4c(c3)Nc3nccc(N5CCOCC5)c3CO4)C2)C1 (stereo not drawn) [Compound 40]	> 10000	1120	–	–	–	–	Ki ([3]; CDK7 (KI(μM)), […], 1 mM ATP, room temperature, averaged values over all measurements): 0.209 µM; kinact ([3]; read-out: CDK7 (kinact, s^−1), kinact = maximal rate of inactivation, 1 mM ATP, room temperature, averaged values over all measurements): 6.41e-05 s⁻¹; kinact/KI ([3]; read-out: CDK7 (kinact/KI, M^−1*s^−1), potency of irreversible covalent inhibitors, 1 mM ATP, room temperature, averaged values over all measurements): 306 M⁻¹ s⁻¹
C=CC(=O)N1CC(N2CCC(c3cc(Cl)c4c(c3)Nc3nccc(N5CCOCC5)c3CO4)CC2)C1 [Compound 91]	–	–	–	–	–	1740	CDK7_A549 mutant hCDK7(pIC50) [1]: <5; CDK7_A549 Wild-type CDK7 (pIC50) [2]: 7.42
C=CC(=O)N1CC[C@@H](N2CC(c3cc4c(c(C(F)(F)F)n3)OCc3c(N5CCOCC5)ccnc3N4)C2)C1 (single isomer, unassigned) [Compound 241]	10700	95.5	0.0269	–	1380	–	CDK7 (20 nM enz.) (kinact, s^−1) ([3]; 20 nM enzyme): 3.715e-05 s⁻¹
CC#CC(=O)N1CC(N2CCC(c3cc4c(c(C#N)n3)O[C@@H](C)c3c(N5CCOCC5)ccnc3N4)CC2)C1 (single isomer, unassigned) [Compound 542]	–	–	0.0082	–	–	–	CDK7_A549 mutant hCDK7(pIC50) [1]: <5; CDK7_A549 Wild-type CDK7 (pIC50) [2]: 6.62; CDK7 (20 nM enz.) (kinact, s^−1) ([3]; 20 nM enzyme): 0.0000556 s⁻¹; CDK7 (20 nM enz.) (kinact/KI, M^−1*s^−1) ([3]; 20 nM enzyme): 6751 M⁻¹ s⁻¹
C=CC(=O)N1CC(N2CC[C@H](c3cc4c(c(C)n3)O[C@H](C)c3c(N5CCOCC5)ccnc3N4)C2)C1 (single isomer, unassigned) [Compound 224]	> 10000	3980	–	–	3	–	–
C=CC(=O)N1CC[C@@H](N2CC(c3cc4c(c(C#N)n3)O[C@H](C)c3c(N5CCOCC5)ccnc3N4)C2)C1 (single isomer, unassigned) [Compound 506]	8320	102	–	–	–	348	–
C#CCCN(C)C/C=C/C(=O)N1CC(N2CCC(c3ccc4c(c3)Nc3nccc(N5CCOCC5)c3[C@@H](C)O4)CC2)C1 (single isomer, unassigned) [Compound 191]	> 10000	4370	3.09	4.72e-05	15.3	–	–
